The source of these data is patent publication US20090215851A1, “Method of Preparing a Porphyrin Derivative, a Porphyrin Derivative, Use of Said Porphyrin derivative and a pharmaceutical composition containing said porphyrin derivative” (PHOTOBIOCHEM N.V., priority 2005, published 2009).

The test system of series [1] is A 549 lung carcinoma cells. Kind of series: Photodynamic cytotoxicity after illumination with white halogen light, MTT assay. Conditions: 0.10 μg/ml. The format is cell-based. For orientation: Formazan colour is commonly taken as a measure of viable cells.
Series [2] in a line: Photochemical singlet oxygen generation (emission at 1270 nm after laser excitation in toluene). The format is physicochemical. Conditions: laser excitation 532 nm, singlet oxygen generating conditions. The method, then: Compound B dissolved in toluene was excited with a 9 mJ, 15 ns laser pulse at 532 nm from a home-built Q-switched frequency doubled Nd:YAG laser operating at 10 Hz. Emission from singlet oxygen at 1270 nm was detected at 90° to the quartz cuvette by an InGaAs photodiode, amplified and then signal-averaged (256 shots) on a digital oscilloscope (HP infinium). A 1260 nm interference filter (FWHM=75 nm) was used to protect the detector from laser light and sensitizer fluorescence. Typical decay times were 28±1 μs, which is characteristic for singlet oxygen decay in toluene (M. Okamoto et al, J. Phys. Chem., 1993, 97, pp. 177-180.) Tetraphenylporphyrin was used as a standard to determine the relative singlet oxygen yield (ΦΔ) (F. Wilkinson, et al, J. Phys. Chem. Ref. Data., 1993, 22, pp. 113-2162.). The relative quantum yield for compound 5 in air saturated toluene was 0.72. […] This stability of the compound according to the invention as exemplified by compound 5 towards singlet oxygen is surprising. In many porphyrins with appending double bonds the double bond reacts chemically with the singlet oxygen generated by the system. […]

The subject of series [3] is A 549 lung carcinoma cells. The experiment in a line: Dark toxicity test, MTT assay. In kind it is cell-based. The conditions noted are these: overnight in the dark at 37° C; concentrations up to 30 μg/ml. The method, then: First a toxicity test of compound 5 in cultures of A 549 lung carcinoma cells (American Type Culture Collection) was carried out in the dark. The cells were incubated in a medium containing compound 5 at various concentrations. The cultures were left overnight in the dark at 37° C. Using the MTT (3-(4,5-dimethylthiazol-2-yl)-2,5-diphenyltetrazolium bromide) assay based on the methods of Tada et al (J. Immunol. Meth., 1986, 93, pp. 157-165) and J. Carmichael et al (Cancer Res., 1987, 47, pp. 936-942.) the cell survival was obtained as a percentage of untreated cells of control (FIG. 2). Even at concentrations up to 30 μg/ml in the medium cell survival was complete (within the experimental error), showing that compound 5 is essentially not toxic towards the lung carcinoma cells in the dark.

In the next series the test system is CAM blood vessels. The experiment in a line: AMD model: CAM (chorioallantoic membrane) model in fertilized chicken eggs, PDT. In kind it is in vivo. The protocol:
Age-related Macula Degeneration (AMD) is an eye affliction that eventually leads to blindness. For studies to treat this affliction, an AMD model exists, the so-called CAM (chorioallantoic membrane) model in fertilized chicken eggs. The blood vessels in this chorioallantoic membrane mimic a number of relevant features characteristic for the blood vessels in the eye involved in causing AMD. Experiments with compound 7 were performed at the department of Professor Hubert van den Bergh of the EPFL in Lausanne. Different doses of compound 7 (dissolved in Water:PEG-400:1-Methyl-2-pyrrolidone (50:30:20 v/v), pH 8.1) were injected in the CAM blood vessels and the vessels were illuminated after an 1 minute time-to-treat interval using different amounts of light energy from a far red light source. In the experiments, Visudyne™ (which has an absorption peak at 690 nm), the only photosensitizer approved for clinical use in AMD, was used as the control.
Compound 7 was as potent (already with a low light dose of 24 J/cm^2 and 1 mg/kg of body weight of photosensitizer 7 the desired grade 3 vessel damage could be obtained) as Visudyne™ in closing blood vessels in this model. […] (Legend: A: Compound 7 fluorescence angiography before PDT; B: compound 7 fluorescence angiography during PDT, shown in the circle is the red light irradiation area; C: sulforhodamine 101 fluorescence angiography 18 hours post-treatment).

In series [4] the test system is subcutaneous mammary CaNT tumors. The experiment in a line: Mouse tumor model, PDT. Conditions: for persistence of phototoxic effect with time after injection (FIG. 9): different intervals between injection and illumination. The format is in vivo. The protocol:
Experiments were performed to investigate the suitability of compound 7 for the photodynamic therapy (PDT) treatment of tumors, in particular subcutaneous mammary CaNT tumors. These experiments were performed by Photopharmica Ltd. under the guidance of Professor Stan Brown in the Centre for Photobiology and Photodynamic Therapy (Leeds, UK). Different doses of compound 7 (dissolved in Water:PEG-400:1-Methyl-2-pyrrolidone (50:30:20 v/v), with a maximum concentration of 0.5 mg/ml at pH 8.1) were intravenously injected and tumors were illuminated with red light (685±15 nm, 60 J/cm^2, 50 mW/cm^2) at different intervals after injection.

Turning to “2′-cyano-8′-formyl-N-methyl-1,1a,5a,6-tetrahydroacrido-[4,5,5a,6-bcd]-annulated 2,3-dihydromesoporphyrin dimethylester [compound 5]”, the “lung carcinoma cells killed” value in series [1] (4 hours incubation in the dark, then white halogen light 30 mW/cm^2 (270 kJ/m^2)) is recorded as 70%. Further, in series [1] (4 hours incubation, white halogen light 30 mW/cm^2 (270 kJ/m^2), FIG. 3), the “photodynamic cytotoxicity compared with mTHPC (Foscan®)” value was “comparable”. The “photo degradation as measured by changes in the absorption spectrum” value in series [2] was “No photo degradation”. Further, the “cell survival as a percentage of untreated cells (dark toxicity)” value in series [3] is “complete”.

Consider “2′-cyano-8′-formyl-N′-methyl-1′,1a′,5a′,6′-tetrahydroacrido[4,5,5a,6-bcd]-annulated 2,3-dihydromesoporphyrin dicarboxylic acid [compound 7]”, for which the “effect of PDT on small CAM blood vessels (FIG. 7)” value in the series on CAM blood vessels (12 J/cm^2 at 1 mg/kg body weight, angiography 18 hours post-treatment) was “closing of the small CAM blood vessels”. Besides, the “potency in closing blood vessels compared with Visudyne™” value with CAM blood vessels (CAM model, far red light) was “as potent”. Besides, in the series on CAM blood vessels (fluorescence microscopy), the “leakage from the CAM blood vessels compared with Visudyne™” value was “much less leakage”. The same compound registered a vessel damage grade with CAM blood vessels (light dose 24 J/cm^2, 1 mg/kg of body weight, 1 minute time-to-treat interval) of 3 grade. Further, in series [4] (after light treatment), the “damage to internal tissue surrounding the tumor” value is given as “comparable to Photofrin™” and the “damage to the skin overlaying the tumor, in contrast to Photofrin™” value is reported as “less damage”. The skin photosensitivity result in series [4] (at the effective tumor dose, within 24 hours after drug administration) is “lacking skin photosensitivity”. The “persistence of phototoxic effect with time after injection (FIG. 9)” value in series [4] is on record as “vanishes rapidly in a couple of hours”. Also, the “PDT effect, light 2 minutes after injection” value in series [4] (drug-to-light interval 2 minutes) is recorded as “already present immediately”. Besides, the “PDT effect, light 180 minutes after injection” value in series [4] (drug-to-light interval 180 minutes) was “virtually absent”. Also, the “dose with good tumor killing potential in vivo” value in series [4] (intravenous, red light 685±15 nm, 60 J/cm^2, 50 mW/cm^2) is “around 2.5 mg/kg”. The “effect on tumor-necrosis and skin damage, light a couple of hours after injection” value in series [4] (treatment with light a couple of hours after injection) is listed as “no effect”.

With `Oc1cccc(-c2c3nc(c(-c4cccc(O)c4)c4ccc([nH]4)c(-c4cccc(O)c4)c4nc(c(-c5cccc(O)c5)c5ccc2[nH]5)CC4)C=C3)c1` [Foscan, mTHPC, reference compound], the “potency relative to compound 7” value in series [4] (mouse tumor model, estimated) is on record as “more potent than compound 7”.

Regarding Photofrin™ [reference compound], the “dose needed for the same percentage of necrotic area (FIG. 8), compared with compound 7” value in series [4] (% necrotic area versus dose) is given as “requires a higher dose for the same effect”. In addition, the “persistence of phototoxic effect with time after injection (FIG. 9)” value in series [4] is “remains phototoxic after several hours”. The “potency relative to compound 7 (fold)” value in series [4] (mouse tumor model, estimated) is recorded as 2.5 times less potent than compound 7.
